ChEMBL document CHEMBL3045373, “New thiazolidinyl analogs containing pyridine ring: synthesis, biological evaluation and QSAR studies” (2013)

How the values were obtained:
Mus musculus = experiment: Analgesic activity in Mus musculus Swiss albino (mouse) assessed as inhibition of acetic acid-induced writhing at 50 mg/kg, po administered 30 min prior to acetic acid challenge measured at 5 to 15 min relative to untreated control; type: functional
Rattus norvegicus = experiment: Anti-inflammatory activity against Rattus norvegicus Wistar (rat) assessed as inhibition of carrageenan-induced paw edema at 10 mg/kg, po administered 30 min prior to carrageenan challenge measured at 120 min by plethysmometeric analysis relative to untreated control; type: functional

Structure (SMILES): O=C1N/C(=N/c2ccc([N+](=O)[O-])cc2Cl)S/C1=C\c1ccccn1
- inhibition in vivo at 50 mg/kg (Mus musculus): 37.4%
- inhibition in vivo at 10 mg/kg (Rattus norvegicus): 39.7%

Structure (SMILES): O=C1N/C(=N\Nc2ccc([N+](=O)[O-])cc2[N+](=O)[O-])S/C1=C\c1ccccn1
- inhibition in vivo at 50 mg/kg (Mus musculus): 68.7%
- inhibition in vivo at 10 mg/kg (Rattus norvegicus): 56.5%

Structure (SMILES): O=C1N/C(=N/c2ccccc2Cl)S/C1=C\c1ccccn1
- inhibition in vivo at 50 mg/kg (Mus musculus): 36.2%
- inhibition in vivo at 10 mg/kg (Rattus norvegicus): 26.2%

Structure (SMILES): Cc1cccc(/N=C2/NC(=O)/C(=C/c3ccccn3)S2)c1
- inhibition in vivo at 50 mg/kg (Mus musculus): 52.3%
- inhibition in vivo at 10 mg/kg (Rattus norvegicus): 39.7%

Structure (SMILES): O=C1N/C(=N/c2ccc(F)cc2)S/C1=C\c1ccccn1
- inhibition in vivo at 50 mg/kg (Mus musculus): 43.2%
- inhibition in vivo at 10 mg/kg (Rattus norvegicus): 34.7%

Structure (SMILES): O=C1N/C(=N\c2ccccc2[N+](=O)[O-])S/C1=C/c1ccccn1
- inhibition in vivo at 50 mg/kg (Mus musculus): 36.7%
- inhibition in vivo at 10 mg/kg (Rattus norvegicus): 34.8%

Structure (SMILES): COc1ccc(/N=C2\NC(=O)/C(=C/c3ccccn3)S2)cc1
- inhibition in vivo at 50 mg/kg (Mus musculus): 42.4%
- inhibition in vivo at 10 mg/kg (Rattus norvegicus): 39.1%

Structure (SMILES): O=C1N/C(=N/c2ccc(Cl)cc2)S/C1=C\c1ccccn1
- inhibition in vivo at 50 mg/kg (Mus musculus): 41.7%
- inhibition in vivo at 10 mg/kg (Rattus norvegicus): 34.8%

Structure (SMILES): Cc1cccc(C)c1/N=C1/NC(=O)/C(=C/c2ccccn2)S1
- inhibition in vivo at 50 mg/kg (Mus musculus): 51.5%
- inhibition in vivo at 10 mg/kg (Rattus norvegicus): 39.7%

Structure (SMILES): O=C(O)Cc1ccccc1Nc1c(Cl)cccc1Cl [DICLOFENAC SODIUM]
- inhibition in vivo at 50 mg/kg (Mus musculus): 60.2%
- inhibition in vivo at 10 mg/kg (Rattus norvegicus): 43.5%

Structure (SMILES): O=C1N/C(=N/c2cccc([N+](=O)[O-])c2)S/C1=C\c1ccccn1
- inhibition in vivo at 50 mg/kg (Mus musculus): 62.3%
- inhibition in vivo at 10 mg/kg (Rattus norvegicus): 43.5%

Structure (SMILES): O=C1N/C(=N/c2ccccc2)S/C1=C\c1ccccn1
- inhibition in vivo at 50 mg/kg (Mus musculus): 29.2%
- inhibition in vivo at 10 mg/kg (Rattus norvegicus): 26.2%

Structure (SMILES): Cc1ccc(/N=C2/NC(=O)/C(=C/c3ccccn3)S2)cc1
- inhibition in vivo at 50 mg/kg (Mus musculus): 43.2%
- inhibition in vivo at 10 mg/kg (Rattus norvegicus): 43.8%

Structure (SMILES): O=C1N/C(=N/c2ccc(Br)cc2)S/C1=C\c1ccccn1
- inhibition in vivo at 50 mg/kg (Mus musculus): 28.7%
- inhibition in vivo at 10 mg/kg (Rattus norvegicus): 30.4%

Structure (SMILES): Cc1ccccc1/N=C1/NC(=O)/C(=C/c2ccccn2)S1
- inhibition in vivo at 50 mg/kg (Mus musculus): 43.6%
- inhibition in vivo at 10 mg/kg (Rattus norvegicus): 30.4%

Structure (SMILES): O=C1N/C(=N\Nc2ccccc2)S/C1=C\c1ccccn1
- inhibition in vivo at 50 mg/kg (Mus musculus): 46.2%
- inhibition in vivo at 10 mg/kg (Rattus norvegicus): 39.7%
